For one data set, the target named is T1, Cytochrome P450 2B1 (Rattus norvegicus, UniProt P00176).
T1 sequence (P00176 whole entry): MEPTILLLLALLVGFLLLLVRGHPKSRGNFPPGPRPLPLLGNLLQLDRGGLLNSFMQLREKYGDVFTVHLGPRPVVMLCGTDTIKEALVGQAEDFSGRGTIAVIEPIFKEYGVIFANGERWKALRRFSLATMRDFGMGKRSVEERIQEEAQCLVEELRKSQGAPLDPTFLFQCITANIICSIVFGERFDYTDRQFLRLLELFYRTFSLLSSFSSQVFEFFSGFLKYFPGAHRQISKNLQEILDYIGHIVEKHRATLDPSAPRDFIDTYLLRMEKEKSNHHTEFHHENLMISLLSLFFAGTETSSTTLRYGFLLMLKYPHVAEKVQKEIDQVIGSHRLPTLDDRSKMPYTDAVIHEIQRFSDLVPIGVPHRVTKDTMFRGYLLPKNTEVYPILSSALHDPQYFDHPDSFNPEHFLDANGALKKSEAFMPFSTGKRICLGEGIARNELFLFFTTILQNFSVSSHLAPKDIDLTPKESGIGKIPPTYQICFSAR
Briefly: (§1) Mechanism based inhibition of rat cytochrome P450 CYP2B1. It is filed as ADME.

A further data set addresses T2, CYP2B1 (Rattus norvegicus, UniProt P00176).
T2 sequence (P00176 whole entry): T1 sequence (P00176 whole entry)
The data set is described as §1. It is filed as ADME. To be noted: rat.

The target of data set [1] is T3, CYP2B4 (Oryctolagus cuniculus, UniProt P00178).
T3 sequence (P00178 whole entry): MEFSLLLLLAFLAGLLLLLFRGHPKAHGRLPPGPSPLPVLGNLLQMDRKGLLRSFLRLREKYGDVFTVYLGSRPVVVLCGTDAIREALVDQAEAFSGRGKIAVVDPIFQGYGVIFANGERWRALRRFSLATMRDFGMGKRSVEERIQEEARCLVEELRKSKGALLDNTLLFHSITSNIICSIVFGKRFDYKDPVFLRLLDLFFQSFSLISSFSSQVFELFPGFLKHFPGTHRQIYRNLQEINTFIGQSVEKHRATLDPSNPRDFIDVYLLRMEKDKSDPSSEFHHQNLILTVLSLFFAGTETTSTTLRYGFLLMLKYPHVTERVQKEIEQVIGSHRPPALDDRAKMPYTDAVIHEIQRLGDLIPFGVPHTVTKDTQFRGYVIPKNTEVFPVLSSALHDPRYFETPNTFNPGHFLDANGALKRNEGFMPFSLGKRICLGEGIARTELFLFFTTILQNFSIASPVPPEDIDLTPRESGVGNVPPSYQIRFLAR
In words: (§2) Mechanism based inhibition of rabbit cytochrome P450 CYP2B4. Type of data set: ADME. To be noted: rabbit.

Data set [2] concerns the target T4, Cytochrome P450 2B4 (Oryctolagus cuniculus, UniProt P00178).
T4 sequence (P00178 whole entry): T3 sequence (P00178 whole entry)
The data set is described as §2. It is filed as ADME.

For another data set, the target named is Cytochrome P450 2B10 (Mus musculus, UniProt P12791). In words: Mechanism based inhibition of mouse cytochrome P450 CYP2B10. It is filed as ADME.
Sequence of Cytochrome P450 2B10 (P12791 whole entry): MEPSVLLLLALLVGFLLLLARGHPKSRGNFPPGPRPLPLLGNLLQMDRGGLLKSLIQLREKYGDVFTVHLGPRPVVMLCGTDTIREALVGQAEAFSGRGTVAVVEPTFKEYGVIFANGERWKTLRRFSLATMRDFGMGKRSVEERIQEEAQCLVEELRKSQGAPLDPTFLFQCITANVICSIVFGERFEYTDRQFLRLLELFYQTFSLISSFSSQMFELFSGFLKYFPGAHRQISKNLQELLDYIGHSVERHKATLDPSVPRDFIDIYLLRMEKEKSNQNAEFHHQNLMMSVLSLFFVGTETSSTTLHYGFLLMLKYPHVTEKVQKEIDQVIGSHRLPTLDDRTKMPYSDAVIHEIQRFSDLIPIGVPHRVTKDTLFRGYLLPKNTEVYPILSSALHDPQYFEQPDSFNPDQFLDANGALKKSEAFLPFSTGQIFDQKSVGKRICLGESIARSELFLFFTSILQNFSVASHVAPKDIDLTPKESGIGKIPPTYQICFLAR
The next data set addresses T5, Cytochrome P450 1A1 (Rattus norvegicus, UniProt P00185).
T5 sequence (P00185 whole entry): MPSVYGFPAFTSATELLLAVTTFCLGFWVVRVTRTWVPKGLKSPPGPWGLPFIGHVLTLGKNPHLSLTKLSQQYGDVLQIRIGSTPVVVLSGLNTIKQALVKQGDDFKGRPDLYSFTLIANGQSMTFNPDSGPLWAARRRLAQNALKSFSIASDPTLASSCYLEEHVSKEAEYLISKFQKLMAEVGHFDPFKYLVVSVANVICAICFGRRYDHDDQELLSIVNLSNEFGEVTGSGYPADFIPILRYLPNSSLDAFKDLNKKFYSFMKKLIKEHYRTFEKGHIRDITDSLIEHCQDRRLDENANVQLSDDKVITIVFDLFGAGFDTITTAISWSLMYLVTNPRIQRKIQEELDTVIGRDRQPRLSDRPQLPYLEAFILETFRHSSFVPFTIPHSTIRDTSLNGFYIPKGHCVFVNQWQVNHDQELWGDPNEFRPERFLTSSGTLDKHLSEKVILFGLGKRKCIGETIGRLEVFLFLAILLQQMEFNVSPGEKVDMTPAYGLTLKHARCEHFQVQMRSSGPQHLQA
Briefly: (§3) Mechanism based inhibition of rat cytochrome P450 CYP1A1 measured by ethoxyresorufin O-deethylation warfarin R-6 and R-8 hydroxylation. It is filed as ADME.

For the next data set, the target named is T6, CYP1A1 (Rattus norvegicus, UniProt P00185).
T6 sequence (P00185 whole entry): T5 sequence (P00185 whole entry)
The data set is described as §3. Type of data set: ADME. The following applies: rat.

Data set [3] has as its target T7, Cytochrome P450 2E1 (Rattus norvegicus, UniProt P05182). In words: Mechanism based inhibition of rat cytochrome P450 CYP2E1. It is filed as ADME.
Data set [4] has as its target T7, Cytochrome P450 2E1. In words: Mechanism based inhibition of rabbit cytochrome P450 CYP2E1 measured by P-nitrophenol (PNP) hydroxylase activity. Type of data set: ADME, Oryctolagus cuniculus. To be noted: target entry is the homologue from another species.
Data set [5] addresses T4, Cytochrome P450 2B4. Briefly: Mechanism based inhibition of rabbit cytochrome P450 CYP2B4 partition ratio. It is filed as ADME.
The target of data set [6] is T3, CYP2B4. In words: (§4) Mechanism based inhibition of rabbit cytochrome P450 CYP2B4 1-Phenylethanol oxidation was used as probe activity. It is filed as ADME. To be noted: rabbit, probe 1-phenylethanol (oxidation).
For data set [7], the target named is T4, Cytochrome P450 2B4. The description is as §4. Type of data set: ADME.
The target in a further data set is Cytochrome P450 2C5 (Oryctolagus cuniculus, UniProt P00179). In words: Mechanism based inhibition of rabbit cytochrome P450 CYP2C5. Type of data set: ADME.
Sequence of Cytochrome P450 2C5 (P00179 whole entry): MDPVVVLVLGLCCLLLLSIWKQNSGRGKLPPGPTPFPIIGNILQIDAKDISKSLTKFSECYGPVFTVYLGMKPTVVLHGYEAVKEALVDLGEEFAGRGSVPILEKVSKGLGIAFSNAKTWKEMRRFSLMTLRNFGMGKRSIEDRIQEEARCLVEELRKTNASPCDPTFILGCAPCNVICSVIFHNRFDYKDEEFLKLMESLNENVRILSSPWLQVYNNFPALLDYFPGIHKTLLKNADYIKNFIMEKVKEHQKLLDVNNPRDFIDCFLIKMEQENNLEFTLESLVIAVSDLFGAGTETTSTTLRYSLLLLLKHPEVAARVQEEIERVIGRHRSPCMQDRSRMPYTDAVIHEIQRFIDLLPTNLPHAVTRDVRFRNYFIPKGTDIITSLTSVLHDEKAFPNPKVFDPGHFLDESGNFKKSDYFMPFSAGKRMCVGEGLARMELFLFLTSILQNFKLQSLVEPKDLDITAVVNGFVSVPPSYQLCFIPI

T7 sequence (P05182 whole entry): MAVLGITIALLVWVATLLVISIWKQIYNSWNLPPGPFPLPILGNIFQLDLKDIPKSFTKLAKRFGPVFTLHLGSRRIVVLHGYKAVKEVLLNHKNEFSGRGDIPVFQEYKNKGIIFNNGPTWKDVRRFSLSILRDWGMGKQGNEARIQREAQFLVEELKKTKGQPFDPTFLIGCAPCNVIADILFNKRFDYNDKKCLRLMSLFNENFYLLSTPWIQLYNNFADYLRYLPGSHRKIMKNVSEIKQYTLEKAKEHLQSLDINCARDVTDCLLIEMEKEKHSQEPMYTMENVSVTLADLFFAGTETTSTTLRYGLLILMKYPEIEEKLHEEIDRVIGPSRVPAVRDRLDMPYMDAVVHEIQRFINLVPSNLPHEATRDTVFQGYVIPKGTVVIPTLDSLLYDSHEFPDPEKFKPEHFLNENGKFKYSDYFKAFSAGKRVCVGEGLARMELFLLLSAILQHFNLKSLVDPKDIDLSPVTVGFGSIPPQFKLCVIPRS

A word on the kinact: it is the maximal first-order rate at which the target is inactivated. As for `Cn1c2ccccc2c2ccccc21`, the Ki at Cytochrome P450 2B1 is 5.2 µM; on Cytochrome P450 2B4 [2], 23 µM. Besides, the maximal inactivation rate constant (kinact) on CYP2B1 is 0.0233 s⁻¹; on CYP2B4 [1], 0.0035 s⁻¹.
`Cc1c(N)c(C)c([N+](=O)[O-])c(C(C)(C)C)c1[N+](=O)[O-]`: the mechanism based inhibition entry on Cytochrome P450 2B10 is given as “Cytochrome P450 mechanistic inhibitor: PMID 9172959”.
As for `O=C(NCCc1ccc([N+](=O)[O-])cc1)C(Cl)Cl`, at Cytochrome P450 1A1, the Ki came to 2.7 µM. In addition, the kinact on CYP1A1 was 0.00867 s⁻¹.
For the compound `CC(C)(C)N=C=S`, the mechanism based inhibition entry on Cytochrome P450 2E1 [3] and on Cytochrome P450 2E1 [4] was “Cytochrome P450 mechanistic inhibitor: PMID 9778311” throughout.
In the case of `COC(=O)c1csc2snnc12`, the partition_ratio at Cytochrome P450 2B4 [5] is 2100. Also, the kinact on CYP2B4 [6] was 0.000667 s⁻¹. On Cytochrome P450 2B4 [7], this compound returned a Ki of 2000 µM.
As for `C[C@]12CC[C@H]3[C@@H](CC=C4C[C@@H](O)CC[C@@]43C)[C@@H]1CC[C@@H]2C(=O)C(Cl)Cl`, the mechanism based inhibition entry at Cytochrome P450 2C5 was “Cytochrome P450 mechanistic inhibitor: PMID 9168258”.

(Values after ChEMBL document CHEMBL1743341, “Cytochrome p450 enzymes mechanism based inhibitors: common sub-structures and reactivity” (Curr Drug Metab, 2005).)
